Several values for one entry are separate records, joined by “and”; a condition that tells them apart may be missing. Equal values may be shown once.
Experiments:
[1] = Dual label excretion studies of 188Re-MAG3 and 99mTc-MAG3 in rats (urine, feces); assay type: in vivo; set-up: Excretion kinetics of ^188 Re-MAG3 in feces of rats, 2 h / Excretion kinetics of ^188 Re-MAG3 in feces of rats, 8 h / Excretion kinetics of ^188 Re-MAG3 in feces of rats, 10 h / Excretion kinetics of ^188 Re-MAG3 in feces of rats, 12 h / Excretion kinetics of ^188 Re-MAG3 in feces of rats, 24 h / Excretion kinetics of ^188 Re-MAG3 in feces of rats, 48 h / Excretion kinetics of ^188 Re-MAG3 in feces of rats, Total: unit not given here
Text: Comparison of the Excretion of ^188 Re-MAG3 with ^99 mTc-MAG3 in rats
Dual Label Excretion Studies of ^188 Re-MAG3 and ^99m Tc-MAG3 in Rats

[2] = Biodistribution of 99mTc-MAG3 and 188Re-MAG3 in a dual label study, tail vein injection; assay type: in vivo, rats; conditions: ± standard deviation
Text: Biodistribution Data for ^99m Tc-MAG3 and ^188 Re-MAG3 in a dual label study

[3] = 188Re-MAG3 stability study at high radioactivity levels (HPLC, TLC); assay type: physicochemical
Experimental: Stability-^188 Re-MAG3 Stability Study at High Radioactivity Levels
^188 Re-MAG3 was prepared using the protocol as described above however using 1 mL generator eluate to dissolve the contents of a commercial MAG3 Kit and addition of 1 mL of SnCl2 /citrate solution. The starting activity in 1 ml generator eluate was 1220 Mbq (33 mCi). Thus the concentration of citrate and stannous ions were maintained, however the concentration of the Kit contents in especially the Benzoyl-MAG3 precursor is reduced to half of the original protocol.
The stability was tested using HPLC-chromatography and also TLC as additional control.

[4] = Stability of 188Re-MAG3 in presence of Hypaque contrast agent; assay type: physicochemical
Experimental: Stability of ^188 Re-MAG3 in Presence of Hypaque Contrast Agent
^188 Re-MAG3 was prepared as in the upper case starting with an activity of 851 Mbq (23 mCi). After the End of Synthesis, QC via HPLC and TLC, 2 mL of a 50% Triazoate solution was added. Triazoate is known as Hypaque and is the 3,5-Bis(acetylamino)-2,4,6-triiodobenzoic acid sodium salt.

[5] = HPLC and ITLC evaluation of 188Re-MAG3 up to five hours after preparation; assay type: physicochemical; conditions: periods up to five hours after preparation
[6] = MIRD calculation of individual organ dose of released 188Re-MAG3; conditions: based on animal data and human 99mTc-MAG3 distribution
Text: As alluded to previously, the probability of balloon rupture at nominal balloon inflation pressures are substantially less than one percent. Animal experiments and calculations of the individual organ dose received by a ^188 Re-MAG3 release have been done. Because the isotope is in solution, there would be no significant local arterial deposition. In fact, attempts to intentionally deposit soluble compounds in vessel walls for their pharmacological properties have been notoriously poor. The distribution and elimination of simultaneously injected ^99 mTc-MAG3 and ^188 Re-MAG3 in rats are identical. Based upon these findings Dr. Michael Stabin of the Oak Ridge Institute for Science and Education (ORISE) has calculated, based on the MIRD formalism, the individual organ dose of released ^188 Re-MAG3. The only organ receiving a dose of greater than 5 cGy would be the urinary bladder wall. This assumes spontaneous urination every 4-6 hours. […] Thus, release of the isotope upon balloon rupture would necessitate placing a bladder catheter until the urinary counts excreted return to background. Based on animal data, and on human ^99m Tc-MAG3 distribution this should occur in less than 12 hours.

[7] = 20 min after mixing with Hypaque
[8] = 80 min after mixing with Hypaque
[9] = 140 min after mixing with Hypaque
[10] = EOS - before addition of Hypaque

## O=C(O)C[N]1C(=O)C[N]2C(=O)C[N]3C(=O)C[S][188Re-]132=[O] [^188 Re-MAG3]
[1]; feces, 2 h, individual rats #1-4, 120 min
  Excretion kinetics of ^188 Re-MAG3 in feces of rats, 2 h: 0.03 and 1.50 and 0.01
[1]; feces, 4 h, individual rats #1-4
  Excretion kinetics of ^188 Re-MAG3 in feces of rats, 4 h: 0
[1]; feces, 6 h, individual rats #1-4
  Excretion kinetics of ^188 Re-MAG3 in feces of rats, 6 h: 0
[1]; feces, 8 h, individual rats #1-4, 480 min
  Excretion kinetics of ^188 Re-MAG3 in feces of rats, 8 h: 0.02 and 0 and 1.30 and 0.04
[1]; feces, 10 h, individual rats #1-4, 600 min
  Excretion kinetics of ^188 Re-MAG3 in feces of rats, 10 h: 0.41 and 3.79 and 1.79 and 1.67
[1]; feces, 12 h, individual rats #1-4, 720 min
  Excretion kinetics of ^188 Re-MAG3 in feces of rats, 12 h: 1.17 and 1.09 and 0 and 2.24
[1]; feces, 24 h, individual rats #1-4, 1440 min
  Excretion kinetics of ^188 Re-MAG3 in feces of rats, 24 h: 5.86 and 6.46 and 4.47 and 3.46
[1]; feces, 48 h, individual rats #1-4, 2880 min
  Excretion kinetics of ^188 Re-MAG3 in feces of rats, 48 h: 0.85 and 2.26 and 0.52 and 0.70
[1]; feces, Total, individual rats #1-4
  Excretion kinetics of ^188 Re-MAG3 in feces of rats, Total: 8.34 and 15.1 and 8.08 and 8.12
[1]; feces, Total, mean of 4 rats, S.D. on separate line
  Excretion kinetics of ^188 Re-MAG3 in feces of rats, Total, mean: 9.91
[1]; simultaneously injected in rats
  distribution and elimination, 99mTc-MAG3 versus 188Re-MAG3: identical
[1]; urine, 6 h, mean of 4 rats, S.D. on separate line
  Excretion kinetics of ^188 Re-MAG3 in urine of rats, 6 h, mean: 0.97
[1]; urine, 8 h, mean of 4 rats, S.D. on separate line
  Excretion kinetics of ^188 Re-MAG3 in urine of rats, 8 h, mean: 2.75
[1]; urine, 10 h, mean of 4 rats, S.D. on separate line
  Excretion kinetics of ^188 Re-MAG3 in urine of rats, 10 h, mean: 1.15
[1]; urine, 12 h, mean of 4 rats, S.D. on separate line
  Excretion kinetics of ^188 Re-MAG3 in urine of rats, 12 h, mean: 0.83
[1]; urine, 24 h, mean of 4 rats, S.D. on separate line
  Excretion kinetics of ^188 Re-MAG3 in urine of rats, 24 h, mean: 5.07
[1]; urine, 48 h, mean of 4 rats, S.D. on separate line
  Excretion kinetics of ^188 Re-MAG3 in urine of rats, 48 h, mean: 1.76
[1]; urine, Total, mean of 4 rats, S.D. on separate line
  Excretion kinetics of ^188 Re-MAG3 in urine of rats, Total, mean: 81.97
[2]; 2 h
  Biodistribution of ^188 Re-MAG3, blood: 0.07 ± 0.01 % inj. dose/g tissue
  Biodistribution of ^188 Re-MAG3, bone: 0.09 ± 0.11 % inj. dose/g tissue
  Biodistribution of ^188 Re-MAG3, contents of l.i.: 0.87 ± 0.32 % inj. dose/g tissue
  Biodistribution of ^188 Re-MAG3, contents of s.i.: 1.97 ± 2.58 % inj. dose/g tissue
  Biodistribution of ^188 Re-MAG3, heart: 0.02 ± 0.03 % inj. dose/g tissue
  Biodistribution of ^188 Re-MAG3, kidneys: 0.12 ± 0.03 % inj. dose/g tissue
  Biodistribution of ^188 Re-MAG3, l. intestine: 0.06 ± 0.02 % inj. dose/g tissue
  Biodistribution of ^188 Re-MAG3, liver: 0.03 ± 0.01 % inj. dose/g tissue
  Biodistribution of ^188 Re-MAG3, lung: 0.05 ± 0.02 % inj. dose/g tissue
  Biodistribution of ^188 Re-MAG3, s. intestine: 0.06 ± 0.04 % inj. dose/g tissue
  Biodistribution of ^188 Re-MAG3, spleen: 0.03 ± 0.02 % inj. dose/g tissue
  Biodistribution of ^188 Re-MAG3, thyroid: 0.70 ± 0.49 % inj. dose/g tissue
[2]; 6 h
  Biodistribution of ^188 Re-MAG3, blood: 0.08 ± 0.02 % inj. dose/g tissue
  Biodistribution of ^188 Re-MAG3, bone: 0.01 ± 0.01 % inj. dose/g tissue
  Biodistribution of ^188 Re-MAG3, contents of l.i.: 1.42 ± 0.33 % inj. dose/g tissue
  Biodistribution of ^188 Re-MAG3, contents of s.i.: 0.06 ± 0.05 % inj. dose/g tissue
  Biodistribution of ^188 Re-MAG3, heart: 0.00 ± 0.00 % inj. dose/g tissue
  Biodistribution of ^188 Re-MAG3, kidneys: 0.11 ± 0.02 % inj. dose/g tissue
  Biodistribution of ^188 Re-MAG3, l. intestine: 0.13 ± 0.03 % inj. dose/g tissue
  Biodistribution of ^188 Re-MAG3, liver: 0.03 ± 0.00 % inj. dose/g tissue
  Biodistribution of ^188 Re-MAG3, lung: 0.02 ± 0.00 % inj. dose/g tissue
  Biodistribution of ^188 Re-MAG3, s. intestine: 0.01 ± 0.00 % inj. dose/g tissue
  Biodistribution of ^188 Re-MAG3, spleen: 0.00 ± 0.01 % inj. dose/g tissue
  Biodistribution of ^188 Re-MAG3, thyroid: 0.76 ± 0.42 % inj. dose/g tissue
[2]; 24 h
  Biodistribution of ^188 Re-MAG3, blood: 0.05 ± 0.02 % inj. dose/g tissue
  Biodistribution of ^188 Re-MAG3, bone: 0.04 ± 0.05 % inj. dose/g tissue
  Biodistribution of ^188 Re-MAG3, contents of l.i.: 0.05 ± 0.01 % inj. dose/g tissue
  Biodistribution of ^188 Re-MAG3, contents of s.i.: 0.02 ± 0.01 % inj. dose/g tissue
  Biodistribution of ^188 Re-MAG3, heart: 0.01 ± 0.00 % inj. dose/g tissue
  Biodistribution of ^188 Re-MAG3, kidneys: 0.07 ± 0.01 % inj. dose/g tissue
  Biodistribution of ^188 Re-MAG3, l. intestine: 0.02 ± 0.00 % inj. dose/g tissue
  Biodistribution of ^188 Re-MAG3, liver: 0.02 ± 0.00 % inj. dose/g tissue
  Biodistribution of ^188 Re-MAG3, lung: 0.01 ± 0.01 % inj. dose/g tissue
  Biodistribution of ^188 Re-MAG3, s. intestine: 0.01 ± 0.00 % inj. dose/g tissue
  Biodistribution of ^188 Re-MAG3, spleen: 0.02 ± 0.01 % inj. dose/g tissue
  Biodistribution of ^188 Re-MAG3, thyroid: 0.74 ± 0.76 % inj. dose/g tissue
[3]; 1 hour after EOS
  Stability, HPLC: 92.0%
[3]; 2 hours after EOS
  Stability, HPLC: 91.1%
[3]; 3 hours after EOS
  Stability, HPLC: 90.3%
[3]; 4 hours after EOS
  Stability, HPLC: 88.3%
[3]; 5 hours after EOS
  Stability, HPLC: 100.8%
[3]; 24 hours after EOS
  Stability, HPLC: 92.4%
  Stability, TLC: 93.4%
[3]; End of Synthesis (EOS)
  Stability, TLC: 97.3%
[3]; End of Synthesis (EOS), starting activity 1220 Mbq (33 mCi)
  Stability, HPLC: 97.3%
[4]; [7]
  Stability in presence of Hypaque, HPLC: > 90%
  Stability in presence of Hypaque, TLC: 94.4%
[4]; 50 min after mixing with Hypaque
  Stability in presence of Hypaque, TLC: 90.5%
[4]; [8]
  Stability in presence of Hypaque, HPLC: 86.6%
  Stability in presence of Hypaque, TLC: 87.7%
[4]; [9]
  Stability in presence of Hypaque, HPLC: 83.3%
  Stability in presence of Hypaque, TLC: 83.3%
[4]; [10]
  Stability in presence of Hypaque, HPLC: > 95%
  Stability in presence of Hypaque, RP-Sep-Pak: 98.3%
  Stability in presence of Hypaque, TLC: 97.6%
[4]; after mixing with Hypaque
  radioactive degradation product found: free perrhenate
[5]
  stability by HPLC and ITLC: no decomposition or effects of radiolysis have been observed
[6]
  time until urinary counts excreted return to background: less than 12 hours
